{"source": "patent US11186552B2", "about": "“Tebuconazole polymorph and preparation method therefor” (East China University of Science and Technology, priority 2017, dated 2021)", "key": {"[1]": {"experiment": "Solubility in ethanol by high performance liquid chromatography", "description": "Excess crystal form 1 and crystal form 2 were weighed and suspended in ethanol, shaken for 12 h, and high performance liquid chromatography was used to test the solubility."}, "wheat white powder": {"system": "wheat white powder", "experiment": "Live spray protection of plants, prevention and control effect", "format": "in vivo", "from_the_text": "The water-dispersible granules preparations with 50% of crystal form 1 and crystal form 2 were formulated into solutions, respectively, and the plants were protected by live spray. Crystal form 2 has better prevention and control effect."}, "[2]": {"experiment": "High humidity stability of crystal form (XRPD test)", "format": "physicochemical", "conditions": "90±5% humidity, 5 days and 10 days", "description": "(§1) XRD (X-ray powder diffraction) method: instrument model: Rigaku Ultima IV; target: Cu-Kα (40 kV, 40 mA); using a D/tex Ultra detector at room temperature. The scanning range is from 3° to 45 in the 2θ interval, and the scanning speed is 20°/minute."}, "[3]": {"experiment": "High temperature stability of crystal form (XRPD test)", "format": "physicochemical", "conditions": "oven at 60±2° C., 5 and 10 days", "description": "as §1, with “20°/minute. […] After 5 and 10 days, the sample was taken out for XRPD test to investigate the crystalline stability of the sample to temperature.” for “20°/minute.”"}, "[4]": {"experiment": "Light stability of crystal form (XRPD test)", "format": "physicochemical", "conditions": "4500±500 lux light intensity, 5 days and 10 days", "description": "as §1"}}, "data": [{"compound": "CC(C)(C)C(O)(CCc1ccc(Cl)cc1)Cn1cncn1", "note": "(racemic) [crystal form 1, (RS)-1-(4-chlorophenyl)-4,4-dimethyl-3-(1H-1,2,4-triazol-1-ylmethyl) pentan-3-ol]", "values": [{"measurement": "solubility at 12 h", "setting": "[1]; organic solvent or mixture, thermodynamic from solid, Solubility, excess solid suspended in ethanol, shaken for 12 h, HPLC", "value": 92.1, "unit": "mg/mL"}]}, {"compound": "CC(C)(C)C(O)(CCc1ccc(Cl)cc1)Cn1cncn1", "note": "(racemic) [96% tebuconazole TC, (RS)-1-(4-chlorophenyl)-4,4-dimethyl-3-(1H-1,2,4-triazol-1-ylmethyl) pentan-3-ol]", "values": [{"measurement": "prevention and control effect", "setting": "wheat white powder; concentration 0.15625 mg/L", "value": 0, "unit": "%"}, {"measurement": "prevention and control effect", "setting": "wheat white powder; concentration 0.625 mg/L", "value": 30, "unit": "%"}, {"measurement": "prevention and control effect", "setting": "wheat white powder; concentration 2.5 mg/L", "value": 50, "unit": "%"}, {"measurement": "prevention and control effect", "setting": "wheat white powder; concentration 10 mg/L", "value": 100, "unit": "%"}]}, {"compound": "CC(C)(C)C(O)(CCc1ccc(Cl)cc1)Cn1cncn1", "note": "(racemic) [crystal form 2, (RS)-1-(4-chlorophenyl)-4,4-dimethyl-3-(1H-1,2,4-triazol-1-ylmethyl) pentan-3-ol]", "values": [{"measurement": "crystalline stability of the samples to humidity", "setting": "[2]", "value": "stable"}, {"measurement": "solubility in ethanol relative to crystal form 1", "setting": "[1]; ethanol, crystal form 2 versus crystal form 1", "value": "about 1.7 times"}, {"measurement": "Solubility", "setting": "[1]; excess solid suspended in ethanol, shaken for 12 h, HPLC", "value": 156.2, "unit": "mg/mL"}, {"measurement": "crystalline stability of the sample to temperature", "setting": "[3]", "value": "stable"}, {"measurement": "crystal form stability of the sample to light", "setting": "[4]", "value": "stable"}]}]}
